Series [1] concerns TCCS cells. Description: GSH/GSSG-Glo measurement, TCCS cells. Format: cell-based, human. As to conditions: for GSH level: TCCS cells, 16 h. As to the method:
(§1) After 3 days, cells were analyzed by viability assays.
(§2) The GSH/GSSG-Glo™ Assay Kit (Promega, V6611) was used for luminescent-based measurement of cellular GSH and GSSG by Tecan Spark 10 microplate reader.

For series [2], the system named is KOPM28 cells. Kind of series: GSH/GSSG-Glo measurement, KOPM28 cells. As to conditions: for GSH level: KOPM28 cells, 16 h. Format: cell-based, human. As to the method: as §1, §2
Series [3] concerns TCCS cells. Kind of series: DNA fiber assay (replication speed), TCCS cells. Format: cell-based, human. As to conditions: erastin 0.5 μM, 16 h. As to the method: as §1
(§3) The DNA fiber assay was performed as described previously. Briefly, cells were sequentially treated with the medium containing 25 μM of CldU (Sigma-Aldrich, C6891) and then 250 μM of IdU (Sigma-Aldrich, I7125) for 20 min. After washing, cells were suspended in PBS (1000 cells/ μL). 2 μL of cell suspension was spotted on slides. After 5 min, 10 μL spread solution (200 mM Tris-HCl, pH 7.5, 50 mM EDTA, and 0.5% SDS) was spotted on the cell droplet and spread on slides. The slides were then fixed with methanol/acetic acid (3:1), followed by denaturation with 2.5 M HCl. After blocking with 5% BSA in TBST, slides were stained with rat anti-BrdU antibody (which detects CldU but not IdU, OBT0030, 1:2000, AbDSerotec) and mouse anti-BrdU antibody (which detects IdU but not CldU, 7580, 1:1000, BD Biosciences) at 4 °C for overnight. The next day, slides were washed with TBST, followed by staining with the secondary antibodies of goat anti-rat IgG conjugated with TRITC (Jackson Lab) and goat anti-mouse IgG conjugated with FITC. Images of DNA fibers were acquired using a microscope (Olympus). The lengths of red- and green-labeled fibers were determined by FluoView3.0 software (Olympus).

In series [4] the test system is KOPM28 cells. Description: DNA fiber assay (replication speed), KOPM28 cells. As to conditions: erastin 0.5 μM, 16 h. Format: cell-based, human. As to the method: as §1, §3
Series [5] concerns T315I-Bcr-Abl-32D cells. Kind of series: CCK-8 cell viability assay, T315I-Bcr-Abl-32D cells. Format: cell-based, mouse. As to conditions: T315I-Bcr-Abl; UK-5099 alone (JMF4073 0); replicates. In general terms: Tetrazolium assays rely on reduction of a dye to a coloured formazan, in cell work by metabolically active cells.
The test system of series [6] is T315I-Bcr-Abl-32D cells. Description: GSH/GSSG-Glo measurement, T315I-Bcr-Abl-32D cells. The series is classed as cell-based, mouse. As to conditions: T315I-Bcr-Abl cells, UK-5099 25 μM, 16 h.
Text: as §2

In another series the test system is K562 cells. Kind of series: GSH/GSSG-Glo measurement, K562 cells. The series is classed as cell-based, human. As to the method: as §1, §2
The subject of series [7] is T315I-Bcr-Abl-32D cells. Description: dTTP/dCTP pools by RCA-qPCR in T315I-Bcr-Abl-32D cells. Format: cell-based, mouse. As to conditions: T315I; replicates. As to the method:
The methanol extracts were centrifuged
For chloroform extraction, same volume of
attomol of the annealed template-primer.
The RCA products were determined by
The thiophenol compound 3 was
(98.5%) after silica gel chromatography.

The subject of series [8] is untransformed 32D cells. Description: CCK-8 cell viability assay, untransformed 32D cells. Format: cell-based, mouse. To be noted: 32D; UK-5099 alone (JMF4073 0); replicates. As to the method:
After 72 h, viability assays were performed.
3 independent experiments. Asterisks denote ***p<0.001 from non-paired two-tailed

Series [9] concerns T315I-Bcr-Abl-32D cells in C3H/HeNCrNarl mice. As to conditions: T315I-Bcr-Abl-32D mice, UK-5099 10 mg/kg i.p. daily for 14 days alone, vs vehicle.
Protocol: Asterisks denote *p < 0.05, **p < 0.01, ***p < 0.001, or ****p < 0.0001 from unpaired two-tailed Student’s t-test or Log-rank (Mantel–Cox) test.
T315I-Bcr-Abl-transformed and untransformed 32D cells were treated with UK-5099 (25 μM) for 16 h. […] Data are represented as means ± S.D., n > 3 biological replicates.
The animal studies were approved by the biosafety committee at National Taiwan University and conformed to the national guidelines and regulations (IACUC # 20201063). Female C3H/HeNCrNarl mice were used at 6–8 weeks of age (National Laboratory Animal Center, Taiwan).
Mouse CML induction and in vivo therapy
The animal studies were approved by the biosafety committee at National Taiwan
University and conformed to the national guidelines and regulations (IACUC #
20201063). Female C3H/HeNCrNarl mice were used at 6-8 weeks of age (National
Laboratory Animal Center, Taiwan).
suspended in 200 μL of HBSS were injected into each mouse through the tail vein.
suspended in 200 μL of HBSS were tail-vein-injected.
For monitoring CML progress, mice blood was
collected in anticoagulation tubes by submandibular blood collection, followed by
lysing red blood cells with RBC lysis buffer (Invitrogen). After washing, the remaining
cells were suspended in 500 μL of HBSS and subjected to flow cytometry analysis
(FACScalibur, BD Bioscience) with CellQuest software.
In series [10] the test system is untransformed 32D cells. Description: DNA fiber assay (replication speed), untransformed 32D cells. The series is classed as cell-based, mouse. To be noted: UK-5099 25 μM, 16 h. As to the method: (§4) The workflow of DNA fiber labeling (Right). The representative labeled fibers are shown below. Replication speed in kb/min was calculated by the measured length of IdU (green) linking to CldU (red) in μm with a conversion factor of 0.34 μm/kb divided by the duration of the labeling pulse (Scale bar = 10 μm). The gray triangle indicates the boundary between red fluorescence and green fluorescence. c The measurement of intracellular ROS by the fluorescence intensity of CellROX Green staining using flow cytometric analysis. Data are presented as mean intensity relative to untransformed 32D cells. d, e The measurement of GSSG and GSH. […] Schematic illustration of the metabolic path U-^13C glutamine incorporation into the GSH (left). Gray and white circles indicate ^13C-label, and unlabeled ^12C, respectively. The traced isotopologue abundance of GSH is shown (right).
(§5) The DNA fiber assay was performed as described previously. Briefly, cells were sequentially treated with the medium containing 25 μM of CldU (Sigma-Aldrich, C6891) and then 250 μM of IdU (Sigma-Aldrich, I7125) for 20 min. After washing, cells were suspended in PBS (1000 cells/ μL). 2 μL of cell suspension was spotted on slides. […] The lengths of red- and green-labeled fibers were determined by FluoView3.0 software (Olympus).

Series [11] has as its system T315I-Bcr-Abl-32D cells. Description: DNA fiber assay (replication speed), T315I-Bcr-Abl-32D cells. Format: cell-based, mouse. To be noted: T315I-Bcr-Abl cells, UK-5099 25 μM, 16 h. As to the method:
as §4, §5

Series [12] relates to untransformed 32D cells. Kind of series: GSH/GSSG-Glo measurement, untransformed 32D cells. The series is classed as cell-based, mouse. To be noted: UK-5099 25 μM, 16 h.
Text: as §2

Several values for one entry are separate records, joined by “and”; a condition that tells them apart may be missing. Equal entries are not always repeated.

For the compound `CCOc1ccccc1-n1c(C(C)N2CCN(C(=O)COc3ccc(Cl)cc3)CC2)nc2ccccc2c1=O` (stereo not drawn) [erastin], the GSH level entry in the series on TCCS cells [1] (erastin 0.5 μM) and in the series on KOPM28 cells [2] (erastin 0.5 μM) was “drastically reduced” in each case. In addition, the “GSH% relative to K562 in 7e (Figure 7f)” value is 12.1585% and 8.793% and 13.8% in the series with TCCS cells [1] (TCCS, Erastin treated, per replicate); 6.981% and 5.472% and 15% in the series on KOPM28 cells [2] (KOPM28, Erastin treated, per replicate). Further, the “replication stress (DNA fiber)” value with TCCS cells [3] and in the series with KOPM28 cells [4] was “induced replication stress” each time.

As for `N#C/C(=C\c1cn(-c2ccccc2)c2ccccc12)C(=O)O` [UK-5099], the GSH level entry with TCCS cells [1] (UK-5099 50 μM) is given as “unchanged”; with KOPM28 cells [2] (UK-5099 50 μM) it was “unchanged”; in the series with T315I-Bcr-Abl-32D cells [6], “reduce GSH levels”. Also, the “GSH% relative to K562 (Figure 7e)” value in the series on TCCS cells [1] (TCCS, UK-5099 treated, K562 vehicle = 100, per replicate) was 96.7924% and 63.772% and 96.1621%; with KOPM28 cells [2] (KOPM28, UK-5099 treated, K562 vehicle = 100, per replicate) it was 180.441% and 154.066% and 117.536%; with K562 cells (K562, UK-5099 treated, K562 vehicle = 100, per replicate), 52.9657% and 35.7607% and 66.83%. The “Figure 6c, viability relative to NT (=100)” value was 99.9363 and 88.5988 and 102.123 in the series with T315I-Bcr-Abl-32D cells [5]; 104.358 and 105.293 and 83.4613 in the series with untransformed 32D cells [8]. Moreover, the “cellular level of GSH” value in the series on K562 cells (K562 cells, UK-5099 50 μM, 16 h) is “bring down”. Further, in the series on T315I-Bcr-Abl-32D cells [7], the “Figure 6d, dCTP relative to NT (=100)” value is 73.8406 and 210.17 and 73.3898. Further, the “Figure 6d, dTTP relative to NT (=100)” value in the series with T315I-Bcr-Abl-32D cells [7] was 74.5764 and 216.09 and 77.7298. Also, the “survival of leukemia mice” value in series [9] is “not affected”. Moreover, the “effect on replication stress, compared with T315I-Bcr-Abl cells” value with untransformed 32D cells [10] is on record as “less”. The replication fork progression entry in the series on T315I-Bcr-Abl-32D cells [11] is “slow replication fork progression”. In the series with untransformed 32D cells [12], the “effect on GSH reduction, compared with T315I-Bcr-Abl cells” value is reported as “less”.

(Values after article PMC11237035, “Glutathione determines chronic myeloid leukemia vulnerability to an inhibitor of CMPK and TMPK” (Communications Biology, 2024).)
